Measured values as given in publication PMC9090388, “Design, synthesis, biological evaluation and QSAR analysis of novel N-substituted benzimidazole derived carboxamides” (Journal of Enzyme Inhibition and Medicinal Chemistry, 2022).
Several values for one entry are separate records, joined by “and”; a condition that tells them apart may be missing. Equal values may be shown once.

Key:
[1] = DPPH free radical scavenging (reducing activity of the stable radical DPPH); assay type: biochemical; conditions: DPPH 50 µM in absolute ethanol; – = did not show any DPPH activity
Method: The reducing activity of investigated systems was achieved by the DPPH method according to previously described procedures with modifications to assure the use in a 96-well microplate. Briefly, equal volumes of various concentrations of tested molecules (dissolved in DMSO) were added to the solution of DPPH (final concentration 50 µM in absolute ethanol). Ethanol and DMSO were used as control solutions in line with earlier reports.[27]

HCT116 (colon carcinoma) = assay: Antiproliferative activity in vitro, MTT, 72 h; assay type: cell-based; conditions: Homo sapiens, HCT-116, 72 h, concentration that causes 50% growth inhibition
Method: (§1) The experiments were performed on four human cell lines, including HCT 116 (colon carcinoma), H 460 (lung carcinoma), MCF-7 (breast carcinoma) and HEK 293 (human embryonic kidney cells), in line with previously published experimental procedures[10]^,[25]. Briefly, the cells were grown in DMEM medium with the addition of 10% foetal bovine serum (FBS), 2 mM L-glutamine, 100 U/mL penicillin and 100 µg/mL streptomycin, and cultured as monolayers at 37 °C in a humidified atmosphere with 5% CO2. Cells were seeded at 2 × 10^3 cells/well in a standard 96-well microtiter plates and left to attach for 24 h. Next day, a test compound was added in five serial 10-fold dilutions. The rate of cell growth was evaluated after 72 h of incubation with MTT reagent. The obtained results are expressed as IC50 values, calculated from the concentration-response curves using linear regression analysis by fitting the test concentrations that give PG values above and below the reference value (i.e. 50%). Each test was performed in quadruplicate in at least two individual experiments.

MCF-7 (breast carcinoma) = assay: Antiproliferative activity in vitro, MTT, 72 h; assay type: cell-based; conditions: Homo sapiens, MCF7, concentration that causes 50% growth inhibition
Method: as §1

H 460 (lung carcinoma) = assay: Antiproliferative activity in vitro, MTT, 72 h; assay type: cell-based, human; conditions: for IC50: Homo sapiens, NCI-H460, 72 h, concentration that causes 50% growth inhibition, 72 h, MTT; for selectivity of antiproliferative activity among cell lines: H 460 versus HCT116, MCF-7, HEK 293
Method: as §1

[2] = system: HEK 293 (human embryonic kidney cells); assay: Antiproliferative/cytotoxic activity in vitro on non-tumour cells, MTT, 72 h; assay type: cell-based; conditions: for IC50: Homo sapiens, HEK293, non-tumour cell line, concentration that causes 50% growth inhibition, 72 h, MTT
Method: as §1

[3] = Ferric reducing/antioxidant power (FRAP assay); assay type: biochemical; conditions: triplicate; – = not active in the FRAP assay
Method: The FRAP method was carried out according to previously described procedures with some modifications to be compatible with an assay on a 96-well microplate. All results were expressed as Fe^2+ equivalents (Fe^2+ µmol).

Nrf2 = assay: Western blot analysis of Nrf2 in cytoplasmic and nuclear fraction; assay type: cell-based, human; conditions: HCT116 cells, 1 h; 34 at 50 µM, 40 at 5 µM, hydrogen peroxide 4 mM
Method: Cell line HCT116 was seeded in 60 mm cell culture dishes (TPP, Switzerland) in a concentration of 9 × 10^5 cells/dish. Next day, the cells were treated with 4 mM hydrogen peroxide as a positive control for ROS induction and with compounds 34 and 40 (50 µM and 5 µM, respectively) for 1 h. Nuclear extracts from the cells were prepared using nuclear extraction buffer kit (Abcam, Cambridge, UK, ab113474) according to the manufacturer instructions. BCA assay (Sigma Aldrich, Taufkirchen, Germany) was performed for the determination of the protein concentration in nuclear and cytoplasm fractions. Denaturation of 1 μg of total proteins in Laemmli SDS loading buffer was performed at 95 °C for 5 min. After loading, 10% SDS poly-acrylamide gel electrophoresis was carried out and then proteins were transferred to nitrocellulose membranes. Afterwards, the membranes were blocked in blocking buffer (ImmobilonBlock – CH (Chemiluminescent Blocker), MerckKGaA, Darmstadt, Germany) and incubated 5 h at room temperature with primary antibody dissolved in ImmobilonBlock – CH (Chemiluminescent Blocker). After the membranes were washed three times for five minutes each with Tris-buffered saline with 0.5% Tween 20 (TBST), they were incubated in the corresponding secondary antibody for 1 h at room temperature or overnight at 4 °C. After washing with TBST, the membranes were processed for enhanced chemiluminescence (ECL) Clarity Max Western ECL Substrate (Bio-Rad Laboratories, Hercules, CA, USA) and captured using Odyssey Fc (LICOR, Bad Homburg, Germany). The primary antibody used was anti-Nrf2, (dilution 1:500, Anti-Nrf2 antibody: ab133347, Abcam), Histon H3 (dilution 1:2000, Anti-H3 antibody: Ab1791, Abcam), β-actin (dilution 1:500, sc-47778, Santa Cruz Biotechnology) and corresponding secondary HRP-conjugated IgG antibody (dilution 1:2000, mouse IgGκ, Santa Cruz Biotechnology).
Figure 5. Nrf2 protein levels in the cytoplasmic and the nuclear fraction of HCT116 cells, assessed by Western blot analysis. […]

Structure (SMILES)	IC50 [1]	IC50 (HCT116 (colon carcinoma)) [µM]	IC50 (MCF-7 (breast carcinoma)) [µM]	IC50 (H 460 (lung carcinoma)) [µM]	IC50 [2] [µM]	FRAP [3]	translocation of Nrf2 to the nucleus (nuclear expression of Nrf2) (Nrf2)	cytotoxicity towards non-tumour cell line compared with tumour cells ([2]; HEK 293 versus tumour cancer cells)	selectivity of antiproliferative activity among cell lines (H 460 (lung carcinoma))
COc1cc(C(=O)Nc2nc3ccccc3[nH]2)cc(OC)c1OC [Compound 27, N-(1H-Benzo[d]imidazol-2-yl)-3,4,5-trimethoxybenzamide]	6820 ± 410 µM	23.1 ± 15	32.8 ± 15.6	17.6 ± 6.7	23.6 ± 4.4	5.59 ± 0.62 mmolFe^2+/mmolC			
OO [hydrogen peroxide, reference compound]							significantly higher in the nucleus		
COc1ccc(C(=O)Nc2nc3ccc(C#N)cc3n2C)c(OC)c1 [Compound 34, N-(6-Cyano-1-methyl-1H-benzo[d]imidazol-2-yl)-2,4-dimethoxybenzamide]	~5680 µM and 5680 µM	47.6 ± 30	46.9 ± 35.4	21.9 ± 2.9	93.3 ± 2.3	618.10 mmolFe^2+/mmolC and 618.10 ± 66.10 mmolFe^2+/mmolC	did not promote the translocation of Nrf2 to the nucleus		
COc1cc(C(=O)Nc2nc3ccc(C#N)cc3n2C)cc(OC)c1OC [Compound 35, N-(6-Cyano-1-methyl-1H-benzo[d]imidazol-2-yl)-3,4,5-trimethoxybenzamide]		5.2 ± 4.2	5.5 ± 3.2	3.9 ± 0.9	12.3 ± 1.5	338.50 ± 21.56 mmolFe^2+/mmolC			
COc1cc([C@@H]2c3cc4c(cc3[C@@H](O[C@@H]3O[C@@H]5CO[C@@H](C)O[C@H]5[C@H](O)[C@H]3O)[C@H]3COC(=O)[C@H]23)OCO4)cc(OC)c1O [Etoposide, reference compound]		5 ± 2	1 ± 0.7	0.1 ± 0.04					

More lines, main results first:

IC50 [1]	IC50 (HCT116 (colon carcinoma)) [µM]	IC50 (MCF-7 (breast carcinoma)) [µM]	IC50 (H 460 (lung carcinoma)) [µM]	Structure (SMILES)	IC50 [2] [µM]	FRAP [3]	translocation of Nrf2 to the nucleus (nuclear expression of Nrf2) (Nrf2)	cytotoxicity towards non-tumour cell line compared with tumour cells ([2]; HEK 293 versus tumour cancer cells)	selectivity of antiproliferative activity among cell lines (H 460 (lung carcinoma))
4510 ± 20 µM	3.8 ± 0.9	2.7 ± 1.9	5.1 ± 2.6	CC(C)Cn1c(NC(=O)c2ccccc2)nc2ccccc21 [Compound 36, N-(1-Isobutyl-1H-benzo[d]imidazol-2-yl)benzamide]	5.9 ± 2.4	179.70 ± 23.42 mmolFe^2+/mmolC			
4920 ± 130 µM	3.1 ± 0.7	4.6 ± 1.4	1.7 ± 0.1	COc1cc(C(=O)Nc2nc3ccccc3n2CC(C)C)cc(OC)c1OC [Compound 39, N-(1-Isobutyl-1H-benzo[d]imidazol-2-yl)-3,4,5-trimethoxybenzamide]	2 ± 0.9	217.20 ± 3.69 mmolFe^2+/mmolC			
11500 ± 1500 µM	~0.6	2.2 ± 1.9		CC(C)Cn1c(NC(=O)c2ccccc2)nc2ccc(C#N)cc21 [Compound 40, N-(6-Cyano-1-isobutyl-1H-benzo[d]imidazol-2-yl)benzamide]	9.1 ± 1	203.50 ± 10.53 mmolFe^2+/mmolC	did not promote the translocation of Nrf2 to the nucleus	significantly less cytotoxic towards non-tumour cell line HEK 293	
	~0.6	3.1 ± 1.7		COc1cc(C(=O)Nc2nc3ccc(C#N)cc3n2CC(C)C)cc(OC)c1OC [Compound 43, N-(6-Cyano-1-isobutyl-1H-benzo[d]imidazol-2-yl)-3,4,5-trimethoxybenzamide]	4.7 ± 1	243.30 ± 3.39 mmolFe^2+/mmolC			
	30.1 ± 13.2	29.4 ± 19.4	4.53 ± 7.3	COc1cc(C(=O)Nc2nc3ccc(C#N)cc3n2-c2ccccc2)cc(OC)c1OC [Compound 51, N-(6-Cyano-1-phenyl-1H-benzo[d]imidazol-2-yl)-3,4,5-trimethoxybenzamide]	61.1 ± 35.7	132.56 ± 18.06 mmolFe^2+/mmolC			selective activity against H 460
6040 ± 290 µM	18.1 ± 1.4	23.8 ± 12.4	17.7 ± 0.8	COc1cc(C(=O)Nc2nc3ccccc3n2C)cc(OC)c1OC [Compound 31, 3,4,5-Trimethoxy-N-(1-methyl-1H-benzo[d]imidazol-2-yl)benzamide]	21.7 ± 9.4	124.28 ± 1.23 mmolFe^2+/mmolC			
	1.6 ± 0.9	2.9 ± 1.3	0.8 ± 1.5	COc1cc(C(=O)Nc2nc3ccccc3n2-c2ccccc2)cc(OC)c1OC [Compound 47, 3,4,5-Trimethoxy-N-(1-pheny-1H-benzo[d]imidazol-2-yl)benzamide]	5.3 ± 2.4	236.90 ± 1.50 mmolFe^2+/mmolC			selective activity against H 460
~3780 µM and 3780 µM	18.7 ± 5.1	11.9 ± 7.5	10.7 ± 2.3	Cn1c(NC(=O)c2ccccc2)nc2ccccc21 [Compound 28, N-(1-Methyl-1H-benzo[d]imidazol-2-yl)benzamide]	29.5 ± 12.5	538.81 mmolFe^2+/mmolC and 358.81 ± 4.83 mmolFe^2+/mmolC			
